Experimental data from patent publication US8361999B2, “Methods of treating cholesterol gallstone disease with ezetimibe” (Pontificia Universidad Catolica de Chile, priority 2005, dated 2013).
Entries after “also recorded” stand apart in the source; their conditions may differ.

Tests used:
MDR2 = assay: Hepatic expression of phospholipid transporter MDR2 (Northern blot); type: in vivo, mouse
Experimental: Expression of Specific Bile Salts (Ntcp, Bsep), Phospholipid (MDR2) and Organic Anions or Glutathione (MRP2); And Determination of Glutathione Synthesis (Gluthamylcystein-Synthetase (GGCS)).
Total RNA extraction. 80 mg hepatic tissue frozen at −70° C. was homogenized in 800 μl solution D, following the method described by Chomczynski and Sacchi, 1987. The RNA concentration was calculated by measuring the absorbance at 260 nm and its purity by the ratio OD260/OD280. The samples are stored at −20° C. RNA electrophoresis. 10 μg of total RNA are dried under gaseous N2 or vacuum for 10 minutes. 10 μl loading buffer were added, and the samples heated to 65° C., loaded into a denaturing 1% agarose/formaldehyde gel and run at 100 volts for 4 hours. The RNA integrity was determined by the clear visualization of the 28 S and 18 S ribosomal RNAs (FIG. 8).
Northern Blot and hybridization with radioactive probes. The gel with the RNA samples is washed with DEPC H2O for 10 minutes to eliminate formaldehyde and then incubated for 20 minutes with 50 mM NaOH for partial RNA hydrolysis. After a 10 minute wash with DEPC H2O to eliminate NaOH, the samples are transferred from the gel to Nylon membranes (Hybond-N, Amersham Pharmacia) over night by a capillary system. […]
Probe labeling by “de novo synthesis”. […] The percentage of incorporated radioactivity into the probe was always over 60%. […]

C57BL/6J mice = assay: Lithiasis of the gallbladder and cholesterol crystals, protocol #2 (Ezetimibe in lithogenic diet, 30 days); type: in vivo, mouse
Experimental: We used mice C57BL/6J susceptible to the development of cholelithiasis originally obtained from Jackson Corp (Bar Harbor, Me., USA) and the colonies were grown in our Laboratory of Gastroenterology, Facultad de Medicina, P. Universidad Católica de Chile. The experimental groups were fed a control chow diet low in cholesterol (<0.02% cholesterol, Prolab RMH3000, PMI Feeds Inc., St. Louis, Mo.) or a lithogenic diet (1.25% cholesterol, 0.5% cholic acid, 15% fat, TD90221, Harlan Teklad, Madison, Wis.) (Amigo et al. 2000). These mice were also treated with Ezetimibe (Zetia®, Merk/Schering Plough) or placebo. In protocol #1 Zetia® tablets were grinded in a porcelain mortar and dissolved in water to be administered to the mice in one daily dose (08 h) of 5 mg/Kg weight by gavage in a final volume of […]; the control groups were given the same volume of water by gavage without the drug. […]
Surgery and sample harvest. […] Afterwards, the common biliary duct is cannulated (biliary fistula) with a P-10 polyethylene cannula to collect bile during 15 minutes, determine bile flow by gravimetry (1 g bile=1 ml; bile flow is expressed as μl/min/g of mouse liver) and for posterior chemical analysis of biliary lipids and glutathione, as specified later. […]

## O=C1[C@H](CC[C@H](O)c2ccc(F)cc2)[C@@H](c2ccc(O)cc2)N1c1ccc(F)cc1 [Ezetimibe, (−)-1-(4-fluorophenyl)-(3R)-[3-(4-fluorophenyl)-(.S)-hydroxypropyl]-(4S)-(4-hydroxyphenyl)-2-azetidinone]
MDR2; lithogenic diet plus Ezetimibe vs lithogenic diet, 14 days
  phospholipid transporter MDR2 at the mRNA level: small but statistically significant decrease; also recorded: slight but statistically significant decrease
MDR2; lithogenic diet plus Ezetimibe, data not shown
  mdr2 protein levels: no concomitant decrease
C57BL/6J mice; lithogenic diet plus Ezetimibe 5-6 mg/kg/day in the diet, 30 days, 100% on lithogenic diet alone
  mice that developed gallstones or cholesterol crystals in the gallbladder: 0%
C57BL/6J mice; lithogenic diet plus Ezetimibe in the diet, 30 days (FIG. 5)
  formation of cholesterol gallstones: inhibits; also recorded: completely inhibited
